# Where two headings read alike, the source gives them in different places.
# Legend:
# Assay type in all cases: cell-based
# [1] = tested on: Pseudomonas aeruginosa strain PA01; test: Antibiotic disc diffusion assay (zone of inhibition); settings: antibiotic disc on Iso-Sensitest agar, 37° C., 20 hours, ±Stdev, n = 2
# Procedure: (§1) The antibiotic disc diffusion assay was performed as described previously to determine the antibiotic susceptibility of the two strains. Briefly, a standardised suspension of the two Pseudomonas strains was used to inoculate Iso-Sensitest agar (ISA) plates to yield semi-confluent growth of each organism. Antibiotic discs containing Gentamicin and Imipenem were applied to the inoculated plates, then incubated at 37° C. for 20 hours. Zones of inhibition were measured to the nearest millimetre.
# [2] = tested on: Pseudomonas aeruginosa strain PS3; test: as above; settings: antibiotic disc on Iso-Sensitest agar, 37° C., 20 hours, ±Stdev, n = 2
# Procedure: as §1
# [3] = tested on: Pseudomonas aeruginosa strain PA01; test: 96-well broth dilution test (MIC) in presence and absence of dendrimer; settings: for MIC: MHB, 37° C., 24 hours; for Reduction (%) in MIC: with dendrimer (0.1%) versus antibiotic alone
# Procedure: (§2) Briefly, a standard suspension of the two Pseudomonas strains was prepared in Mueller Hinton Broth (MHB), then added to varying concentrations of antibiotic in a 96-well plate. Tests were performed either in the presence or absence of dendrimer (final concentration 0.1%). 96-well plates were incubated at 37° C. for 24 hours, with optical density (620 nm) of cultures monitored over this period using a Multiskan EX plate reader (Thermo Labsystems).
# [4] = tested on: Pseudomonas aeruginosa strain PS3; test: as above; settings: for MIC: MHB, 37° C., 24 hours; for Reduction (%) in MIC: with dendrimer (0.1%) versus antibiotic alone
# Procedure: as §2
# [5] = presence of dendrimer (final concentration 0.1%)
Compound,Zone of inhibition [1],Zone of inhibition [2],"MIC ([3]; Pseudomonas aeruginosa, PA01, 24 h, absence of dendrimer, read-out: MIC) [µg/mL]","MIC ([3]; Pseudomonas aeruginosa, PA01, 24 h, presence of dendrimer (final concentration 0.1%), read-out: MIC) [µg/mL]",Reduction (%) in MIC [3] [%],"MIC ([4]; Pseudomonas aeruginosa, PS3, 24 h, absence of dendrimer, read-out: MIC) [µg/mL]","MIC ([4]; Pseudomonas aeruginosa, PS3, 24 h, presence of dendrimer (final concentration 0.1%), read-out: MIC) [µg/mL]",Reduction (%) in MIC [4] [%],MIC ([3]; absence of dendrimer) [µg/mL],"MIC [3, 5] [µg/mL]",MIC ([4]; absence of dendrimer) [µg/mL],"MIC [4, 5] [µg/mL]"
C[C@@H](O)[C@H]1C(=O)N2C(C(=O)O)=C(SCCN=CN)C[C@H]12 [Imipenem],12 (±2.8) Mm,35 (±0.0) Mm,28.3,< 0.011,> 99.9,51.1,< 0.011,> 99.9,–,–,–,–
Gentamicin,38 (±1.4) Mm,46 (±0.7) Mm,–,–,71,–,–,78,4.64,1.34,1.45,0.32

# Source: patent US20250195561A1, “A CATIONIC DENDRIMER FOR IMPROVING ANTIBIOTIC EFFICACY OF AN ANTIBIOTIC” (GAMA HEALTHCARE LTD, priority 2022, published 2025)
